Numbered stars: 1 amine (or outer) side, 2 acyl side, 3 side chain; on linkers, the order of the positions; unused ones are H or OH. Bridge positions count the residues as written; N and C are the ends. Square brackets hold non-standard residues; d marks the D form. Peptide text beside a SMILES is read from it. I, II: the chains in the order shown. ξ: configuration not given here. Phe(4-COOH) = N[C@@H](Cc1ccc(C(=O)O)cc1)C(=O)O; Phe(4-tBu) = CC(C)(C)c1ccc(C[C@H](N)C(=O)O)cc1; Bip = N[C@@H](Cc1ccc(-c2ccccc2)cc1)C(=O)O; 1Nal = N[C@@H](Cc1cccc2ccccc12)C(=O)O; Diglycolyl = O=C(COCC(=O)[*:2])[*:1]; NMeR = CN[C@@H](CCCNC(=N)N)C(=O)O; β3hE = N[C@@H](CCC(=O)O)CC(=O)O; Thr(3ξ) = CC(O)[C@H](N)C(=O)O; NMeK = CN[C@@H](CCCCN)C(=O)O; Pen = CC(C)(S)[C@H](N)C(=O)O; dNMeK = CN[C@H](CCCCN)C(=O)O Bounds are passed on as bounds.

T1 sequence (Q00651 34-1039 limits assumed): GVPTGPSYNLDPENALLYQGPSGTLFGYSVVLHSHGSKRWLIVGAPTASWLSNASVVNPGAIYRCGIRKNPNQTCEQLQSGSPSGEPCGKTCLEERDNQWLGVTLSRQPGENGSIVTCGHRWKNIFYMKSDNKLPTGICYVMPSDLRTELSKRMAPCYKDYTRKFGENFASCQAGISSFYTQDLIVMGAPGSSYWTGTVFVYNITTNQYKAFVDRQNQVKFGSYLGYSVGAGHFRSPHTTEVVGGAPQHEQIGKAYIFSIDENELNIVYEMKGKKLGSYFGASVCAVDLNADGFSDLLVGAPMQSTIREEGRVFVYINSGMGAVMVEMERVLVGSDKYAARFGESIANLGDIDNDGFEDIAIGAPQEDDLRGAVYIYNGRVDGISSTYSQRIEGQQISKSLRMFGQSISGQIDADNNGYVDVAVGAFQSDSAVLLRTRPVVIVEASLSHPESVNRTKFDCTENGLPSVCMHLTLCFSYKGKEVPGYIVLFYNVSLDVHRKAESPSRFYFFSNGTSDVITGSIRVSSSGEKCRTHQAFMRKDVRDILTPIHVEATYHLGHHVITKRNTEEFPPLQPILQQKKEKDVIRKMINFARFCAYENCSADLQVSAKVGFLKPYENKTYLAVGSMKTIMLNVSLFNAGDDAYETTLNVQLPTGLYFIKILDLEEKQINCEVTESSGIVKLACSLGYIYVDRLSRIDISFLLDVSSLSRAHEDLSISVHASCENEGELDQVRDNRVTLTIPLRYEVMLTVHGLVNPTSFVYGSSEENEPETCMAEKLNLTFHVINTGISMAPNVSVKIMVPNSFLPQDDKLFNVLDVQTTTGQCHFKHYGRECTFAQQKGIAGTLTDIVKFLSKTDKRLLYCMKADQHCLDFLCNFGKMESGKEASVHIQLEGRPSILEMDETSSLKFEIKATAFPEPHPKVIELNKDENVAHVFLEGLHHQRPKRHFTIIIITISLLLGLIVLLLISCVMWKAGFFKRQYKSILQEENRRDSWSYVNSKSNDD
T1 sequence (P26011 20-806): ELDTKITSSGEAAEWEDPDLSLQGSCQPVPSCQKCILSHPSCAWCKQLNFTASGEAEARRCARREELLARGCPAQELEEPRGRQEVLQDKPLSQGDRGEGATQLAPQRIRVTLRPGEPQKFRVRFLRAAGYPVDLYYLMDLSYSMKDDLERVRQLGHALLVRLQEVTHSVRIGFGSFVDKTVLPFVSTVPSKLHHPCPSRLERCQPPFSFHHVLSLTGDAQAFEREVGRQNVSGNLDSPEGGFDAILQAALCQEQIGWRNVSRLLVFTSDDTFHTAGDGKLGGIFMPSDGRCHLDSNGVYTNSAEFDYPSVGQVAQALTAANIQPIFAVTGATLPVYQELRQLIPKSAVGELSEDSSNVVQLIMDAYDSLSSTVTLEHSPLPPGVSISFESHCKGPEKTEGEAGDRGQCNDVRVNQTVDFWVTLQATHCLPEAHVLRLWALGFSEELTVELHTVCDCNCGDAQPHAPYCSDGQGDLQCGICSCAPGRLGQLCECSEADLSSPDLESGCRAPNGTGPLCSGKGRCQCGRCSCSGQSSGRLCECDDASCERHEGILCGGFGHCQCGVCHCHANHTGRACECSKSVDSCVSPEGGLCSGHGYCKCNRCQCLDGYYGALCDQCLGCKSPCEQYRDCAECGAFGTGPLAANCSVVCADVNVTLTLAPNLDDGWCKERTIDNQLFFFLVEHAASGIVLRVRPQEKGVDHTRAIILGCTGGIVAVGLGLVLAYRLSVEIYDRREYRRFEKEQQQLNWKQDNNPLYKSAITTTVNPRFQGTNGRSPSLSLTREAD

The first test has as its target T1, α4β7 (Mus musculus, UniProt P26011+Q00651).
T1 construct: host or cells: TK1 mouse T cells
Put plainly: α4β7 Cell Adhesion Assay (Mouse), TK1 cells. Format: cell-based. The note with it: Table 3-B, Potency (α4β7); range classes; read-out: α4β7 cell(MU) IC50. Here is the method:
TK1 cells (ATCC # ATCC-CRL-2396) were cultured in RPMI 1640 with 2 mM L-glutamine adjusted to contain 1.5 g/L sodium bicarbonate, 4.5 g/L glucose, 10 mM HEPES, and 1.0 mM sodium pyruvate (ATCC#30-2001) and supplemented with 0.1 mM non-essential amino acids, (ATCC #30-2116) 0.05 mM 2-mercaptoethanol (Invitrogen #21985) and 10% serum (Fetal Bovine Serum, Invitrogen #16140-071), and Penicillin-Streptomycin (Invitrogen #15140-122) at 100 units of penicillin and 100 μg of streptomycin per ml. The cells were washed two times in DMEM medium (ATCC #30-2002) supplemented with 0.1% BSA, 10 mM HEPES pH 7 and 1 mM MnCl2. The cells were re-suspended in supplemented DMEM medium at a density of 4×10^6 cells/ml.
A Nunc MaxiSorp plate was coated with Recombinant human MAdCAM-1 Fc Chimera (R&D #6065-MC) at 200 ng per well in 100 μl per well in 1×PBS and incubated at 4° C. overnight. The solution was then removed by shaking, blocked with 250 ul per well PBS containing 1% BSA, and incubated at 37° C. for 1 hr. The solution was removed by shaking. DATK 32 (anti-mouse α4β7) and peptides were diluted by serial dilution in a final volume of 50 ul per well (2× concentration). To each well, 50 ul of cells (200,000 cells) are added and the plate is incubated at 37° C., 5% CO2 for 30-45 min to allow cell adhesion. The plate was manually washed three times with supplemented DMEM, 100 ul per wash. After the final wash, 100 ul/well of supplemented DMEM and […] of MTT reagent (ATTC cat#30-1010K) was added to each well. Wells were incubated at 37° C. with 5% CO2 for 2-3 hrs until purple precipitate was visible. 100 μl of Detergent Reagent (ATTC cat#30-1010K) was added to each well. The plate was then wrapped with Para film to prevent evaporation, and left overnight at room temperature in the dark. The plate was shaken for 5 min and the absorbance at 570 nm was measured. To calculate the dose response, the absorbance value of control wells not containing cells was subtracted from each test well.
On to `CC(=O)N[C@@H]1C(=O)N(C)[C@@H](CCCNC(=N)N)C(=O)N[C@@H](CO)C(=O)N[C@@H](CC(=O)O)C(=O)N[C@@H]([C@@H](C)O)C(=O)N[C@@H](CC(C)C)C(=O)N[C@H](C(=O)N[C@@H](Cc2ccc(C(C)(C)C)cc2)C(=O)N[C@@H](CCC(=O)O)CC(=O)N[C@H](CCCCN)C(N)=O)C(C)(C)SSC1(C)C` [compound 153] (Ac-[Pen][NMeR]SDTL[Pen][Phe(4-tBu)][β3hE][dK]-NH2; disulfide 1-7), for which the IC50 lay within 10 to 25 nM.
On to `CC(=O)N[C@@H]1C(=O)N(C)[C@@H](CCCNC(=N)N)C(=O)N[C@@H](CO)C(=O)N[C@@H](CC(=O)O)C(=O)N[C@@H]([C@@H](C)O)C(=O)N[C@@H](CC(C)C)C(=O)N[C@H](C(=O)N[C@@H](Cc2cccc3ccccc23)C(=O)N[C@@H](CCC(=O)O)C(=O)N(C)[C@H](CCCCNC(=O)COCC(=O)NCCCC[C@H](C(N)=O)N(C)C(=O)[C@H](CCC(=O)O)NC(=O)[C@H](Cc2cccc3ccccc23)NC(=O)[C@H]2NC(=O)[C@H](CC(C)C)NC(=O)[C@H]([C@@H](C)O)NC(=O)[C@H](CC(=O)O)NC(=O)[C@H](CO)NC(=O)[C@H](CCCNC(=N)N)N(C)C(=O)[C@@H](NC(C)=O)C(C)(C)SSC2(C)C)C(N)=O)C(C)(C)SSC1(C)C` [compound 44] (I: Ac-[Pen][NMeR]SDTL[Pen][1Nal]E[dNMeK]-NH2 / II: Ac-[Pen][NMeR]SDTL[Pen][1Nal]E[dNMeK]-NH2; disulfide I:1-I:7, II:1-II:7; linker I:10-II:10 via Diglycolyl), for which the half-inhibitory concentration (IC50) is under 10 nM.
Turning to `CC(=O)N[C@@H]1C(=O)N(C)[C@@H](CCCNC(=N)N)C(=O)N[C@@H](CO)C(=O)N[C@@H](CC(=O)O)C(=O)N[C@@H]([C@@H](C)O)C(=O)N[C@@H](CC(C)C)C(=O)N[C@H](C(=O)N[C@@H](Cc2ccc(C(=O)O)cc2)C(=O)N[C@@H](CCC(=O)O)C(=O)N(C)[C@@H](CCCCNC(=O)COCC(=O)NCCCC[C@@H](C(N)=O)N(C)C(=O)[C@H](CCC(=O)O)NC(=O)[C@H](Cc2ccc(C(=O)O)cc2)NC(=O)[C@H]2NC(=O)[C@H](CC(C)C)NC(=O)[C@H]([C@@H](C)O)NC(=O)[C@H](CC(=O)O)NC(=O)[C@H](CO)NC(=O)[C@H](CCCNC(=N)N)N(C)C(=O)[C@@H](NC(C)=O)C(C)(C)SSC2(C)C)C(N)=O)C(C)(C)SSC1(C)C` [compound 147] (I: Ac-[Pen][NMeR]SDTL[Pen][Phe(4-COOH)]E[NMeK]-NH2 / II: Ac-[Pen][NMeR]SDTL[Pen][Phe(4-COOH)]E[NMeK]-NH2; disulfide I:1-I:7, II:1-II:7; linker I:10-II:10 via Diglycolyl), the IC50 was under 10 nM.
On the same count and under the same terms, the figure for `CC(=O)N[C@@H]1C(=O)N(C)[C@@H](CCCNC(=N)N)C(=O)N[C@@H](CO)C(=O)N[C@@H](CC(=O)O)C(=O)N[C@@H]([C@@H](C)O)C(=O)N[C@@H](CC(C)C)C(=O)N[C@H](C(=O)N[C@@H](Cc2ccc(-c3ccccc3)cc2)C(=O)N[C@@H](CCC(=O)O)CC(=O)N(C)[C@@H](CCCCNC(=O)COCC(=O)NCCCC[C@@H](C(N)=O)N(C)C(=O)C[C@H](CCC(=O)O)NC(=O)[C@H](Cc2ccc(-c3ccccc3)cc2)NC(=O)[C@H]2NC(=O)[C@H](CC(C)C)NC(=O)[C@H]([C@@H](C)O)NC(=O)[C@H](CC(=O)O)NC(=O)[C@H](CO)NC(=O)[C@H](CCCNC(=N)N)N(C)C(=O)[C@@H](NC(C)=O)C(C)(C)SSC2(C)C)C(N)=O)C(C)(C)SSC1(C)C` [compound 150] (I: Ac-[Pen][NMeR]SDTL[Pen][Bip][β3hE][NMeK]-NH2 / II: Ac-[Pen][NMeR]SDTL[Pen][Bip][β3hE][NMeK]-NH2; disulfide I:1-I:7, II:1-II:7; linker I:10-II:10 via Diglycolyl) is under 10 nM; for `CC(=O)N[C@@H]1C(=O)N(C)[C@@H](CCCNC(=N)N)C(=O)N[C@@H](CO)C(=O)N[C@@H](CC(=O)O)C(=O)N[C@@H]([C@@H](C)O)C(=O)N[C@@H](CC(C)C)C(=O)N[C@H](C(=O)N[C@@H](Cc2ccc(C(C)(C)C)cc2)C(=O)N[C@@H](CCC(=O)O)CC(=O)O)C(C)(C)SSC1(C)C` [compound 152] (Ac-[Pen][NMeR]SDTL[Pen][Phe(4-tBu)][β3hE]-OH; disulfide 1-7) it is under 10 nM; for `CC(=O)N[C@@H]1C(=O)N(C)[C@@H](CCCNC(=N)N)C(=O)N[C@@H](CO)C(=O)N[C@@H](CC(=O)O)C(=O)N[C@@H]([C@@H](C)O)C(=O)N[C@@H](CC(C)C)C(=O)N[C@H](C(=O)N[C@@H](Cc2ccc(C(C)(C)C)cc2)C(=O)N[C@@H](CCC(=O)O)CC(=O)N[C@H](CCCCNC(=O)COCC(=O)NCCCC[C@@H](NC(=O)C[C@H](CCC(=O)O)NC(=O)[C@H](Cc2ccc(C(C)(C)C)cc2)NC(=O)[C@H]2NC(=O)[C@H](CC(C)C)NC(=O)[C@H]([C@@H](C)O)NC(=O)[C@H](CC(=O)O)NC(=O)[C@H](CO)NC(=O)[C@H](CCCNC(=N)N)N(C)C(=O)[C@@H](NC(C)=O)C(C)(C)SSC2(C)C)C(N)=O)C(N)=O)C(C)(C)SSC1(C)C` [compound 132] (I: Ac-[Pen][NMeR]SDTL[Pen][Phe(4-tBu)][β3hE][dK]-NH2 / II: Ac-[Pen][NMeR]SDTL[Pen][Phe(4-tBu)][β3hE][dK]-NH2; disulfide I:1-I:7, II:1-II:7; linker I:10-II:10 via Diglycolyl) it is under 10 nM.
Still for that read-out and setting: the figure for `CC(=O)N[C@@H]1C(=O)N(C)[C@@H](CCCNC(=N)N)C(=O)N[C@@H](CO)C(=O)N[C@@H](CC(=O)O)C(=O)N[C@@H]([C@@H](C)O)C(=O)N[C@@H](CC(C)C)C(=O)N[C@H](C(=O)N[C@@H](Cc2ccc(C(=O)O)cc2)C(=O)N[C@@H](CCC(=O)O)CC(=O)N(C)[C@@H](CCCCNC(=O)COCC(=O)NCCCC[C@@H](C(N)=O)N(C)C(=O)C[C@H](CCC(=O)O)NC(=O)[C@H](Cc2ccc(C(=O)O)cc2)NC(=O)[C@H]2NC(=O)[C@H](CC(C)C)NC(=O)[C@H]([C@@H](C)O)NC(=O)[C@H](CC(=O)O)NC(=O)[C@H](CO)NC(=O)[C@H](CCCNC(=N)N)N(C)C(=O)[C@@H](NC(C)=O)C(C)(C)SSC2(C)C)C(N)=O)C(C)(C)SSC1(C)C` [compound 148] (I: Ac-[Pen][NMeR]SDTL[Pen][Phe(4-COOH)][β3hE][NMeK]-NH2 / II: Ac-[Pen][NMeR]SDTL[Pen][Phe(4-COOH)][β3hE][NMeK]-NH2; disulfide I:1-I:7, II:1-II:7; linker I:10-II:10 via Diglycolyl) is under 10 nM.
Still for that read-out and setting: the figure for `CC(=O)N[C@@H]1C(=O)N(C)[C@@H](CCCNC(=N)N)C(=O)N[C@@H](CO)C(=O)N[C@@H](CC(=O)O)C(=O)N[C@@H]([C@@H](C)O)C(=O)N[C@@H](CC(C)C)C(=O)N[C@H](C(=O)N[C@@H](Cc2c[nH]c3ccccc23)C(=O)N[C@@H](CCC(=O)O)C(=O)N[C@H](CCCCNC(=O)COCC(=O)NCCCC[C@@H](NC(=O)[C@H](CCC(=O)O)NC(=O)[C@H](Cc2c[nH]c3ccccc23)NC(=O)[C@H]2NC(=O)[C@H](CC(C)C)NC(=O)[C@H]([C@@H](C)O)NC(=O)[C@H](CC(=O)O)NC(=O)[C@H](CO)NC(=O)[C@H](CCCNC(=N)N)N(C)C(=O)[C@@H](NC(C)=O)C(C)(C)SSC2(C)C)C(N)=O)C(N)=O)C(C)(C)SSC1(C)C` [compound 67] (I: Ac-[Pen][NMeR]SDTL[Pen]WE[dK]-NH2 / II: Ac-[Pen][NMeR]SDTL[Pen]WE[dK]-NH2; disulfide I:1-I:7, II:1-II:7; linker I:10-II:10 via Diglycolyl) is under 10 nM.

Still in this test, the particulars now being: mouse T cell TK1; read-out: IC50 for blocking adhesion of TK1 cell line to MAdCAM-1.
On to `CC(=O)N[C@@H]1C(=O)N(C)[C@@H](CCCNC(=N)N)C(=O)N[C@@H](CO)C(=O)N[C@@H](CC(=O)O)C(=O)N[C@@H](C(C)O)C(=O)N[C@@H](CC(C)C)C(=O)N[C@H](C(=O)N[C@@H](Cc2ccc(C(C)(C)C)cc2)C(=O)N[C@@H](CCC(=O)O)CC(=O)N[C@H](CCCCNC(=O)COCC(=O)NCCCC[C@@H](NC(=O)C[C@H](CCC(=O)O)NC(=O)[C@H](Cc2ccc(C(C)(C)C)cc2)NC(=O)[C@H]2NC(=O)[C@H](CC(C)C)NC(=O)[C@H](C(C)O)NC(=O)[C@H](CC(=O)O)NC(=O)[C@H](CO)NC(=O)[C@H](CCCNC(=N)N)N(C)C(=O)[C@@H](NC(C)=O)C(C)(C)SSC2(C)C)C(N)=O)C(N)=O)C(C)(C)SSC1(C)C` (stereo partly drawn) [Peptide X, [Ac-Pen-(N-Me-Arg)-Ser-Asp-Thr-Leu-Pen-(Phe(4-tBu))-(β-homoGlu)-(D-Lys)]2-DIG] (I: Ac-[Pen][NMeR]SD[Thr(3ξ)]L[Pen][Phe(4-tBu)][β3hE][dK]-NH2 / II: Ac-[Pen][NMeR]SD[Thr(3ξ)]L[Pen][Phe(4-tBu)][β3hE][dK]-NH2; disulfide I:1-I:7, II:1-II:7; linker I:10-II:10 via Diglycolyl), for which the IC50 stood at 0.5 nM.

For the origin of these results see US9809623B2, “α4β7 peptide monomer and dimer antagonists” (Protagonist Therapeutics, Inc., priority 2014, dated 2017).
